Like-named read-outs stand apart in the source and are kept apart here.
What was measured:
[1] = test system: Herpes virus
[2] = test system: Influenza B Massachusetts virus; experiment: Influenza B Mass. in mice, oral; late read day 5 (Table 39), 7 (Table 40), 11 (Tables 61, 65); control fraction 16/20 (Table 61), else 100%; format: in vivo, mouse
Protocol: A portion of a commercially available sample of amantadine was recrystallized from isopropanol. The activity of the material against Influenza B Mass. was tested for the sample as obtained, the recrystallized portion, and the mother liquor obtained from recrystallizing the portion.

[3] = test system: Influenza, Ann Arbor virus; experiment: Influenza Ann Arbor in mice, oral; schedule by table; late read day 5 (Tables 15, 25, 29, 30), 6 (18, 20, 22, 23, 26, 27, 28, 54), 7 (14, 19, 21, 24, 53, 56), 8 (16, 17, 51), 9 (11, 55); format: in vivo, mouse

NNC(=S)NC12CC3CC(CC(C3)C1)C2
No. animals surviving when 18/20 of controls are dead ([1]; total dose 4 pg): 1 | Survivors ([1]; total dose 4 pg): 1 | No. animals surviving when 18/20 of controls are dead ([1]; total dose 40 pg): 1 | Survivors ([1]; total dose 40 pg): 1 | No. animals surviving when 18/20 of controls are dead ([1]; total dose 400 pg): 3 | Survivors ([1]; total dose 400 pg): 3 | No. animals surviving when 18/20 of controls are dead ([1]; total dose 4 ng): 2 | Survivors ([1]; total dose 4 ng): 2 | No. animals surviving when 18/20 of controls are dead ([1]; total dose 40 ng): 2 | Survivors ([1]; total dose 40 ng): 2 | No. animals surviving when 18/20 of controls are dead ([1]; total dose 400 ng): 3 | Survivors ([1]; total dose 400 ng): 3

NC(=S)NN=C1CCCCC1 [Cyclohexanone, thiosemicarBazone, Cyclohexanone, thiosemicarbazone]
No. animals surviving after 5 days (Table 61: 11 days) ([2]; total dose .000005 μg (5 pg)): 7 | No. animals surviving when 100% (Table 61: 16/20) of controls are dead ([2]; total dose .000005 μg (5 pg)): 5 | Survivors ([2]; total dose .000005 μg (5 pg)): 5 | No. animals surviving after 5 days (Table 61: 11 days) ([2]; total dose .00005 μg (50 pg)): 4 | No. animals surviving when 100% (Table 61: 16/20) of controls are dead ([2]; total dose .00005 μg (50 pg)): 3 | Survivors ([2]; total dose .00005 μg (50 pg)): 2 | No. animals surviving after 5 days (Table 61: 11 days) ([2]; total dose .0005 μg (500 pg)): 2 | No. animals surviving when 100% (Table 61: 16/20) of controls are dead ([2]; total dose .0005 μg (500 pg)): 2 | Survivors ([2]; total dose .0005 μg (500 pg)): 2 | No. animals surviving after 5 days (Table 61: 11 days) ([2]; total dose .005 μg (5 ng)): 3 | No. animals surviving when 100% (Table 61: 16/20) of controls are dead ([2]; total dose .005 μg (5 ng)): 2 | Survivors ([2]; total dose .005 μg (5 ng)): 2 | No. animals surviving after 5 days (Table 61: 11 days) ([2]; total dose .05 μg (50 ng)): 7 | No. animals surviving when 100% (Table 61: 16/20) of controls are dead ([2]; total dose .05 μg (50 ng)): 7 | Survivors ([2]; total dose .05 μg (50 ng)): 5 | No. animals surviving after 5 days (Table 61: 11 days) ([2]; total dose .5 μg (500 ng)): 2 | No. animals surviving when 100% (Table 61: 16/20) of controls are dead ([2]; total dose .5 μg (500 ng)): 1 | Survivors ([2]; total dose .5 μg (500 ng)): 1

N#CCC(=O)NN [Cyonacetic Acid Carbazide, Cyanoacetic Acid Hydrazide]
No. animals surviving after 5 days (Table 61: 11 days) ([2]; total dose .000005 μg (5 pg)): 3 | No. animals surviving when 100% (Table 61: 16/20) of controls are dead ([2]; total dose .000005 μg (5 pg)): 3 | Survivors ([2]; total dose .000005 μg (5 pg)): 3 | No. animals surviving after 5 days (Table 61: 11 days) ([2]; total dose .00005 μg (50 pg)): 4 | No. animals surviving when 100% (Table 61: 16/20) of controls are dead ([2]; total dose .00005 μg (50 pg)): 4 | Survivors ([2]; total dose .00005 μg (50 pg)): 4 | No. animals surviving after 5 days (Table 61: 11 days) ([2]; total dose .0005 μg (500 pg)): 8 | No. animals surviving when 100% (Table 61: 16/20) of controls are dead ([2]; total dose .0005 μg (500 pg)): 5 | Survivors ([2]; total dose .0005 μg (500 pg)): 5 | No. animals surviving after 5 days (Table 61: 11 days) ([2]; total dose .005 μg (5 ng)): 2 | No. animals surviving when 100% (Table 61: 16/20) of controls are dead ([2]; total dose .005 μg (5 ng)): 2 | Survivors ([2]; total dose .005 μg (5 ng)): 1 | No. animals surviving after 5 days (Table 61: 11 days) ([2]; total dose .05 μg (50 ng)): 4 | No. animals surviving when 100% (Table 61: 16/20) of controls are dead ([2]; total dose .05 μg (50 ng)): 4 | Survivors ([2]; total dose .05 μg (50 ng)): 3 | No. animals surviving after 5 days (Table 61: 11 days) ([2]; total dose .5 μg (500 ng)): 5 | No. animals surviving when 100% (Table 61: 16/20) of controls are dead ([2]; total dose .5 μg (500 ng)): 4 | Survivors ([2]; total dose .5 μg (500 ng)): 4

NNc1nncc2ccccc12 [Hydralazine, hydralazine, reference compound]
activity in words ([1]; mouse, in vivo): effective

NC12CC3CC(CC(C3)C1)C2 [Recrystallized amantadine, amantadine, reference compound]
No. animals surviving after 11 days ([2]; total dose 60 ng): 4 | Survivors ([2]; total dose 60 ng): 2 | No. animals surviving after 11 days ([2]; total dose 600 ng): 3 | Survivors ([2]; total dose 600 ng): 3 | No. animals surviving after 11 days ([2]; total dose 6 μg): 5 | Survivors ([2]; total dose 6 μg): 5 | No. animals surviving after 11 days ([2]; total dose 60 μg): 5 | Survivors ([2]; total dose 60 μg): 2 | No. animals surviving after 11 days ([2]; total dose 600 μg): 3 | Survivors ([2]; total dose 600 μg): 2 | No. animals surviving after 11 days ([2]; total dose 6 mg): 6 | Survivors ([2]; total dose 6 mg): 4

CCOC(=O)CC(C)=NNC(N)=S [acetoacetic acid, ethyl ester, thiosemicarbazone]
No. animals surviving after 5-7 days ([3]; total dose 30 pg): 8 | Survivors ([3]; total dose 30 pg): 0 | No. animals surviving after 5-7 days ([3]; total dose 300 pg): 4 | Survivors ([3]; total dose 300 pg): 0 | No. animals surviving after 5-7 days ([3]; total dose 3 ng): 5 | Survivors ([3]; total dose 3 ng): 0 | No. animals surviving after 5-7 days ([3]; total dose 30 ng): 5 | Survivors ([3]; total dose 30 ng): 0 | No. animals surviving after 5-7 days ([3]; total dose 300 ng): 4 | Survivors ([3]; total dose 300 ng): 0 | No. animals surviving after 5-7 days ([3]; total dose 3 μg): 6 | Survivors ([3]; total dose 3 μg): 0 | No. animals surviving after 5-7 days ([3]; total dose 30 μg): 8 | Survivors ([3]; total dose 30 μg): 0 | No. animals surviving after 5-7 days ([3]; total dose 300 μg): 7 | Survivors ([3]; total dose 300 μg): 0 | No. animals surviving after 5-7 days ([3]; total dose 3 mg): 5 | Survivors ([3]; total dose 3 mg): 0

Reference: patent US4027039A (priority 1975, dated 1977)
